Assay results as given in patent publication US12371454B2, “Cyclic peptide compound having Kras inhibitory action” (priority 2019, dated 2025).
Starred links: 1 amine or outer side, 2 acyl side, 3 side chain; linkers in the order of their positions; H or OH if unused. Positions of bridges follow the written chain, without caps; N, C: chain ends. Non-standard residues stand in square brackets, D forms with d. Residues, ends and D or L forms follow the SMILES beside them. *: point of attachment. hPhe(3-Cl-4-CF3) = N[C@@H](CCc1ccc(C(F)(F)F)c(Cl)c1)C(=O)O; NMePhe(3-CN) = CN[C@@H](Cc1cccc(C#N)c1)C(=O)O; NMePhe(4-Me) = CN[C@@H](Cc1ccc(C)cc1)C(=O)O; NMedβ3hAla = C[C@H](CC(=O)[*:2])N(C)[*:1]; X22 = O=C([C@@H]1Cc2ccccc2N1[*:1])[*:2]; NMeGly(cPent) = CN[C@H](C(=O)O)C1CCCC1; Phe(3-I) = N[C@@H](Cc1cccc(I)c1)C(=O)O; Phe(4-F) = N[C@@H](Cc1ccc(F)cc1)C(=O)O; NMeCha = CN[C@@H](CC1CCCCC1)C(=O)O; NMeCba = CN[C@@H](CC1CCC1)C(=O)O; NMeChg = CN[C@H](C(=O)O)C1CCCCC1; NMeI = CC[C@H](C)[C@H](NC)C(=O)O; N(CH2CH2)2CF2 = FC1(F)CCN(*)CC1; NMeD = CN[C@@H](CC(=O)O)C(=O)O; NMeL = CN[C@@H](CC(C)C)C(=O)O; NMeV = CN[C@H](C(=O)O)C(C)C; Azetidin(1-yl) = C1CN(*)C1; Pip = O=C(O)[C@@H]1CCCCN1; NMeA = CN[C@@H](C)C(=O)O; NMeAib = CNC(C)(C)C(=O)O; Piperidide = C1CCN(*)CC1; Pra = C#CC[C@H](N)C(=O)O; Ac5c = NC1(C(=O)O)CCCC1; Aze = O=C(O)[C@@H]1CCN1; Sar = CNCC(=O)O

Molecular target: T1, Kras and SOS1 (biotin-tagged human Kras loaded with GDP, His-tagged human SOS1) (Homo sapiens, UniProt P01116, G12D)
T1 construct: made in house; host or cells: E. coli (stated for Kras only)
T1 sequence (P01116 1-188 isoform P01116-2 G12D): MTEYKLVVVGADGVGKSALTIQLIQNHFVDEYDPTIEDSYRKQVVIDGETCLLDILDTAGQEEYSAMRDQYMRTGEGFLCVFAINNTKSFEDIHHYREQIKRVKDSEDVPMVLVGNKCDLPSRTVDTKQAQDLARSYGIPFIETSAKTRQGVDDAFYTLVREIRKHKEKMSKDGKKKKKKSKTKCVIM
Experiment: Protein-protein interaction inhibition between Kras and SOS1 (KrasGl2D-SOS PPI) using AlphaScreen
Type: binding
Conditions: AlphaScreen; biotin-tagged human Kras loaded with GDP, His-tagged human SOS1; read-out: KRAS G12D-SOS PPI IC50
In short: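 Donor beads (nickel) hold His-SOS1; acceptor beads (streptavidin) hold biotin-Kras bound to GDP. Signal measured at 520-620 nm following 680 nm excitation.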

Compound	IC50
CC[C@H](C)[C@@H]1NC(=O)[C@H](CC(C)C)N(C)C(=O)C[C@@H](C(=O)N2CCCCC2)N(C)C(=O)[C@H](C(C)C)N(C)C(=O)C2(CCCC2)NC(=O)[C@@H]2CCCN2C(=O)[C@H](CCc2ccc(C(F)(F)F)c(Cl)c2)NC(=O)CN(C)C(=O)[C@H](Cc2cccc(C#N)c2)N(C)C(=O)CN(C)C(=O)CN(C)C1=O [Compound 710] ([NMeL]I[Sar][Sar][NMePhe(3-CN)][Sar][hPhe(3-Cl-4-CF3)]P[Ac5c][NMeV][NMeD]-Piperidide; lactam N-11)	4.4 nM
CC[C@H](C)[C@@H]1NC(=O)[C@H](CC(C)C)N(C)C(=O)C[C@@H](C(=O)N2CCCCC2)N(C)C(=O)[C@H](CC(C)C)NC(=O)C(C)(C)N(C)C(=O)[C@H](Cc2ccc(F)cc2)NC(=O)[C@H](Cc2cccc(I)c2)NC(=O)CN(C)C(=O)[C@H](CC2CCCCC2)N(C)C(=O)CN(C)C(=O)CN(C)C1=O [Compound 711] ([NMeL]I[Sar][Sar][NMeCha][Sar][Phe(3-I)][Phe(4-F)][NMeAib]L[NMeD]-Piperidide; lactam N-11)	35 nM
CC[C@H](C)[C@@H]1NC(=O)[C@H](CC(C)C)N(C)C(=O)C[C@@H](C(=O)N(C)C)N(C)C(=O)[C@H]([C@@H](C)CC)N(C)C(=O)[C@H](C)NC(=O)[C@H](C)N(C)C(=O)[C@H](CCc2ccc(C(F)(F)F)c(Cl)c2)NC(=O)CN(C)C(=O)[C@H](Cc2ccc(C)cc2)N(C)C(=O)[C@@H]2CCN2C(=O)[C@H](C)N(C)C1=O [Compound 715] ([NMeL]I[NMeA][Aze][NMePhe(4-Me)][Sar][hPhe(3-Cl-4-CF3)][NMeA]A[NMeI][NMeD]-NMe2; lactam N-11)	6.1 nM
C#CC[C@@H]1NC(=O)[C@H](CC(C)C)N(C)C(=O)C[C@@H](C(=O)N2CCCCC2)N(C)C(=O)[C@H](C2CCCCC2)N(C)C(=O)C2(CCCC2)NC(=O)[C@@H]2CCCN2C(=O)[C@H](CCc2ccc(C(F)(F)F)c(Cl)c2)NC(=O)CN(C)C(=O)[C@H](CC2CCCCC2)N(C)C(=O)CN(C)C(=O)CN(C)C1=O [Compound 716] ([NMeL][Pra][Sar][Sar][NMeCha][Sar][hPhe(3-Cl-4-CF3)]P[Ac5c][NMeChg][NMeD]-Piperidide; lactam N-11)	1.1 nM
CC[C@H](C)[C@@H]1NC(=O)[C@H](CC(C)C)N(C)C(=O)C[C@@H](C(=O)N2CCC2)N(C)C(=O)[C@H](C2CCCC2)N(C)C(=O)C2(CCCC2)NC(=O)[C@H](CC(=O)N2CCC(F)(F)CC2)N(C)C(=O)[C@H](CCc2ccc(C(F)(F)F)c(Cl)c2)NC(=O)CN(C)C(=O)[C@H](CC2CCCCC2)N(C)C(=O)[C@@H]2CCN2C(=O)[C@H](C)N(C)C1=O [Compound 719] ([NMeL]I[NMeA][Aze][NMeCha][Sar][hPhe(3-Cl-4-CF3)][NMeD](N(CH2CH2)2CF2)[Ac5c][NMeGly(cPent)][NMeD]-{Azetidin(1-yl)}; lactam N-11)	5.9 nM
CC[C@H](C)[C@@H]1NC(=O)[C@H](CC(C)C)N(C)C(=O)C[C@@H](C(=O)N2CCCCC2)N(C)C(=O)[C@H](C2CCCCC2)N(C)C(=O)C2(CCCC2)NC(=O)[C@@H]2CCCN2C(=O)[C@H](CCc2ccc(C(F)(F)F)c(Cl)c2)NC(=O)[C@H](C)N(C)C(=O)[C@H](CC2CCCCC2)N(C)C(=O)CN(C)C(=O)CN(C)C1=O [Compound 722] ([NMeL]I[Sar][Sar][NMeCha][NMeA][hPhe(3-Cl-4-CF3)]P[Ac5c][NMeChg][NMeD]-Piperidide; lactam N-11)	420 nM
CC[C@H](C)[C@@H]1NC(=O)[C@H](CC(C)C)N(C)C(=O)C[C@@H](C)N(C)C(=O)[C@H](CC2CCC2)N(C)C(=O)C2(CCCC2)NC(=O)[C@@H]2CCCN2C(=O)[C@H](CCc2ccc(C(F)(F)F)c(Cl)c2)NC(=O)CN(C)C(=O)[C@H](CC2CCCCC2)N(C)C(=O)CN(C)C(=O)CN(C)C1=O [Compound 723] (cyclo([Ac5c][NMeCba][NMedβ3hAla][NMeL]I[Sar][Sar][NMeCha][Sar][hPhe(3-Cl-4-CF3)]P))	17 nM
CC[C@H](C)[C@@H]1NC(=O)[C@H](CC(C)C)N(C)C(=O)C[C@@H](C(=O)N2CCCCC2)N(C)C(=O)[C@H](C2CCCCC2)N(C)C(=O)C2(CCCC2)NC(=O)[C@@H]2Cc3ccccc3N2C(=O)[C@H](CCc2ccc(C(F)(F)F)c(Cl)c2)NC(=O)CN(C)C(=O)[C@H](CC2CCCCC2)N(C)C(=O)[C@@H]2CCN2C(=O)CN(C)C1=O [Compound 725] ([NMeL]I[Sar][Aze][NMeCha][Sar][hPhe(3-Cl-4-CF3)][X22][Ac5c][NMeChg][NMeD]-Piperidide; lactam N-11)	7.8 nM
CC[C@H](C)[C@@H]1NC(=O)[C@H](CC(C)C)N(C)C(=O)C[C@@H](C(=O)N2CCCCC2)N(C)C(=O)[C@H](C2CCCCC2)N(C)C(=O)C2(CCCC2)NC(=O)[C@@H]2CCCCN2C(=O)[C@H](CCc2ccc(C(F)(F)F)c(Cl)c2)NC(=O)CN(C)C(=O)[C@H](CC2CCCCC2)N(C)C(=O)CN(C)C(=O)CN(C)C1=O [Compound 728] ([NMeL]I[Sar][Sar][NMeCha][Sar][hPhe(3-Cl-4-CF3)][Pip][Ac5c][NMeChg][NMeD]-Piperidide; lactam N-11)	16 nM
